According to ChEMBL document CHEMBL1146300, “High affinity Grb2-SH3 domain ligand incorporating Cbeta-substituted prolines in a Sos-derived decapeptide” (Bioorg Med Chem, 2007):
Activity calls are given as the source filed them. The rule behind the calls is not given here. Numbered stars: 1 amine (or outer) side, 2 acyl side, 3 side chain; on linkers, the order of the positions; unused ones are H or OH. Square brackets hold non-standard residues; d marks the D form. Peptide text beside a SMILES is read from it. X4 = O=C([C@@H]1C(CS(=O)(=O)c2ccccc2)CCN1[*:1])[*:2]; X3 = C[S+]([O-])CC1CCN([*:1])[C@@H]1C(=O)[*:2]; X2 = O=C(O)CC1CCN([*:1])[C@@H]1C(=O)[*:2]; X6 = CC(C)C1CCN([*:1])[C@@H]1C(=O)[*:2]; X5 = O=C([C@@H]1C(CO)CCN1[*:1])[*:2]; X1 = CC1CCN([*:1])[C@@H]1C(=O)[*:2]

Molecular target: Growth factor receptor-bound protein 2 (Homo sapiens, UniProt P62993)
Assay: Binding affinity to recombinant Grb2-SH3 domain by fluorescence spectroscopy

| Activity | Kd [µM] | Molecule |
| --- | --- | --- |
| inactive |  | CC(C)[C@H](N)C(=O)N1CCC[C@H]1C(=O)N1CCC[C@H]1C(=O)N1CCC[C@H]1C(=O)N1CCC(CO)[C@H]1C(=O)N1CCC[C@H]1C(=O)N1CCC[C@H]1C(=O)N[C@@H](CCCNC(=N)N)C(=O)N[C@@H](CCCNC(=N)N)C(=O)N[C@@H](CCCNC(=N)N)C(=O)O (stereo partly drawn) (H-VPPP[X5]PPRRR-OH) |
|  | < 0.52 | CC(=O)N[C@H](C(=O)N1CCC[C@H]1C(=O)N1CCC[C@H]1C(=O)N1CCC[C@H]1C(=O)N1CCC(C)[C@H]1C(=O)N1CCC[C@H]1C(=O)N1CCC[C@H]1C(=O)N[C@@H](CCCNC(=N)N)C(=O)N[C@@H](CCCNC(=N)N)C(=O)N[C@@H](CCCNC(=N)N)C(=O)N[C@H](C(=O)N1CCC[C@H]1C(=O)N1CCC[C@H]1C(=O)N1CCC[C@H]1C(=O)N1CCC(C)[C@H]1C(=O)N1CCC[C@H]1C(=O)N1CCC[C@H]1C(=O)N[C@@H](CCCNC(=N)N)C(=O)N[C@@H](CCCNC(=N)N)C(=O)N[C@@H](CCCNC(=N)N)C(=O)N[C@@H](CCCCN)C(N)=O)C(C)C)C(C)C (stereo partly drawn) (Ac-VPPP[X1]PPRRRVPPP[X1]PPRRRK-NH2) |
|  | 11.6 | CC(C)[C@H](N)C(=O)N1CCC[C@H]1C(=O)N1CCC[C@H]1C(=O)N1CCC[C@H]1C(=O)N1CCC(C)[C@H]1C(=O)N1CCC[C@H]1C(=O)N1CCC[C@H]1C(=O)N[C@@H](CCCN=C(N)N)C(=O)N[C@@H](CCCN=C(N)N)C(=O)N[C@@H](CCCN=C(N)N)C(=O)O (stereo partly drawn) (H-VPPP[X1]PPRRR-OH) |

Second part, the molecule before the results:

| Molecule | Activity | Kd [µM] |
| --- | --- | --- |
| CC(C)[C@H](N)C(=O)N1CCC[C@H]1C(=O)N1CCC[C@H]1C(=O)N1CCC[C@H]1C(=O)N1CCC(CC(=O)O)[C@H]1C(=O)N1CCC[C@H]1C(=O)N1CCC[C@H]1C(=O)N[C@@H](CCCNC(=N)N)C(=O)N[C@@H](CCCNC(=N)N)C(=O)N[C@@H](CCCNC(=N)N)C(=O)O (stereo partly drawn) (H-VPPP[X2]PPRRR-OH) | inactive |  |
| CC(C)[C@H](N)C(=O)N1CCC[C@H]1C(=O)N1CCC[C@H]1C(=O)N1CCC[C@H]1C(=O)N1CCC(C[S+](C)[O-])[C@H]1C(=O)N1CCC[C@H]1C(=O)N1CCC[C@H]1C(=O)N[C@@H](CCCNC(=N)N)C(=O)N[C@@H](CCCNC(=N)N)C(=O)N[C@@H](CCCNC(=N)N)C(=O)O (stereo partly drawn) (H-VPPP[X3]PPRRR-OH) | inactive |  |
| CC(C)[C@H](N)C(=O)N1CCC[C@H]1C(=O)N1CCC[C@H]1C(=O)N1CCC[C@H]1C(=O)N1CCC(CS(=O)(=O)c2ccccc2)[C@H]1C(=O)N1CCC[C@H]1C(=O)N1CCC[C@H]1C(=O)N[C@@H](CCCNC(=N)N)C(=O)N[C@@H](CCCNC(=N)N)C(=O)N[C@@H](CCCNC(=N)N)C(=O)O (stereo partly drawn) (H-VPPP[X4]PPRRR-OH) | inactive |  |
| H-VPPPPPPRRR-OH | inactive |  |
| CC(C)C1CCN(C(=O)[C@@H]2CCCN2C(=O)[C@@H]2CCCN2C(=O)[C@@H]2CCCN2C(=O)[C@@H](N)C(C)C)[C@@H]1C(=O)N1CCC[C@H]1C(=O)N1CCC[C@H]1C(=O)N[C@@H](CCCNC(=N)N)C(=O)N[C@@H](CCCNC(=N)N)C(=O)N[C@@H](CCCNC(=N)N)C(=O)O (stereo partly drawn) (H-VPPP[X6]PPRRR-OH) | inactive |  |
